Converted amounts (≈) assume the structure as drawn. “And” between values parts separate entries of the source, which are not always exact repeats. Equal entries are not always repeated. Each block holds one compound with its values, some of them ahead of it.
How the values were obtained:
[1] = NaCl extraction from 0.4M NaCl water by ASM + Calix[4]Est in chloroform (Example 11); conditions: for NaCl - 20° C. % ext (average) / NaCl - 60° C. % ext (average): average molar extraction; for Mol % Cl- extracted from the water to be treated / Mol % Na+ extracted from the water to be treated: CEM 0.3 Mol/L, ASM 0.3 Mol/L in CHCl3, 0.4 M NaCl; for Δ % ext: difference 20° C. minus 60° C.
Procedure: The extraction composition is obtained by solubilizing an amount of 4-tert-butyl Calix[4]arene tetraethyl Ester (CAS No. 97600-39-0) and ASM in chloroform CHCl3 to obtain a final concentration after solubilization of the CEM and ASM of 0.3 mol/L for Calix[4]Est and of 0.3 mol/L for ASM, respectively. These sealed formulations were then orbitally stirred at 500 rpm for 2 hours after adding an equivalent volume of twice distilled water to allow water saturation of the entire formulation and control of pH output (pH=7). The extraction composition is then put to stand to settle. All the compositions tested are stable and rapidly decanted (a few minutes at the most).
A 0.4 mol/L NaCl aqueous solution was prepared from twice distilled water.
The organic extraction composition is then slightly heated to promote solubilization of the compounds by hot air gun (temperature of about 50 to 60° C.) for a few seconds (10 to 30 seconds) until a clear solution is obtained.
3 mL of the organic extraction composition is then removed from the lower phase of the settled two-phase mixture and transferred to a vial containing 3 mL of salt water at 0.4 M NaCl and then the flask is sealed and orbitally stirred (at 500 revolutions per minute), for 2 hours at room temperature (RT), that is to say between 20 and 25° C. In the case of extraction at 60° C., magnetic stirring (at 500 revolutions per minute), for 2 hours, is carried out with indirect heating in a metal mold on a heating plate. It is verified that droplets of the order of 1-2 mm are present during these agitations in order to be certain to achieve equilibrium in the NaCl distribution between the two liquid phases at the end of stirring. The appearance of the organic and aqueous phases is clear and colorless or slightly cloudy.
After stirring for 2 hours, stirring is stopped and the solution is put to stand to settle within 10 minutes, at least until the two phases have completely separated off, at the temperature of the test. The upper aqueous phase is then removed and then stirred and diluted for analysis of its salinity by a Metrohm Ion Chromatograph incorporating a suitable cation analysis column and a suitable anion analysis column. Similarly, the initial aqueous solution of NaCl at 0.4M is also analyzed by this ion chromatograph to determine its relative molar concentration in sodium and in chlorides. AN extractions and analyzes were duplicated.

[2] = NaCl extraction from 0.3M NaCl water by ASMC7 at four concentrations + Calix[4]Est in chloroform (Example 12)
Procedure: Four extraction compositions were obtained by solubilizing a constant amount of 4-tert-butylCalix[4]arene tetraethylEster (CAS No. 97600-39-0) and four increasing amounts of ASMC7 in chloroform CHCl3 to obtain four final concentrations after solubilization of CEM and ASM, from 0.34 to 0.36 mol/L for Calix[4]Est and 0.36 mol/L, 0.71 mol/L, 1.09 mol/L and 1.49 mol/L for ASMC7, respectively. These four sealed formulations were then orbitally stirred at 500 rpm for 2 hours after adding an equivalent volume of twice distilled water to allow water saturation of the entire formulation and control of pH at the output (pH=7). The extraction composition is then put to stand for settling. All the compositions tested are stable and rapidly decanted (a few minutes at the most).
An 0.3 mol/L NaCl aqueous solution was prepared from twice distilled water.
3 ml of each organic extraction composition are then removed in the lower phase of the settled two-phase mixture and transferred to four vials, each containing 3 ml of the salt water at 0.3M NaCl, then the flasks are sealed and orbitally stirred (at 500 revolutions per minute), for 2 hours at room temperature (RT), that is to say between 20 and 25° C. In the case of extraction at 60° C., a magnetic stirring (at 500 revolutions per minute), for 2 hours, is carried out with indirect heating in a metal mold on a heating plate. It is verified that droplets of the order of 1-2 mm are present during these agitations in order to be certain to reach equilibrium in the NaCl distribution between the two liquid phases at the end of stirring. The appearance of the organic and aqueous phases is clear and colorless for these 4 formulations tested.
After stirring for 2 hours, stirring is stopped and the solution is put to stand for settling within 10 minutes, at least until the two phases have completely separated off, at the test temperature. Then, the four upper aqueous phases are separately taken and then stirred and diluted for analysis of their salinity by a Metrohm Ion Chromatograph incorporating a suitable cation analysis column and a suitable anion analysis column. Similarly, the initial aqueous solution of 0.3M NaCl is also analyzed by this ion chromatograph to determine its relative molar concentration of sodium and chlorides. All extractions and analyzes were duplicated.

[3] = Solubility in water (UV-visible spectrometry); format: physicochemical; conditions: water; read-out: Solubility in water
Text: The hydrophobicity or solubility of a compound can be measured by standard methods and in particular by UV-visible spectrometry.

[4] = NaCl extraction from 0.2M NaCl water by ASM/CEM composition, ion chromatography of treated water; conditions: ASM: 3TFMPhOH; CEM 0.2M; NaCl 0.2M water
Procedure: To 3 mL of 3-(trifluoromethyl)phenol, was added 217 mg of Dibenzo-18-crown-6 in order to obtain a formulation with 0.2 mole/L of DB18C6. This sealed formulation was then orbitally stirred at 500 rpm overnight after 1 mL of distilled water was added twice to allow water saturation of the whole.
The next morning, an aqueous 0.2 mol/L NaCl solution was prepared from twice distilled water, while the formulation that was stirred overnight was allowed to stand for decantation. A clear decantation of the two colorless phases is obtained in a few minutes. 3 mL of the organic extraction solution is then removed and transferred to a flask containing 3 mL of this salt water containing 0.2 M NaCl, then the flask is sealed and orbitally stirred (usually 500 rpm), for 3 hours and at room temperature. It is verified that droplets of the order of 1-2 mm are present in quantity at the selected stirring speed (400 to 900 rpm).
After stirring for 2 hours, stirring is stopped and the whole is left to stand for decantation for at least 10 minutes until the two phases are completely separated. The upper aqueous phase is then removed and then stirred and diluted for analysis of its salinity by a Metrohm Ion Chromatography Incorporating a suitable cation analysis column and a suitable anion analysis column. Similarly, the initial aqueous solution of 0.2M NaCl is also analyzed by this ion chromatography equipment to determine its relative concentration of sodium and chlorides. […]

[5] = methanol; cited from earlier work
[6] = methanol, published complexing constants; cited from earlier work
[7] = 60° C., CEM 0.341, ASMC7 0.708 Mol/L, ratio 2.08
[8] = 60° C., CEM 0.345, ASMC7 0.358 Mol/L, ratio 1.04
[9] = 60° C., CEM 0.349, ASMC7 1.088 Mol/L, ratio 3.12
[10] = 60° C., CEM 0.358, ASMC7 1.488 Mol/L, ratio 4.16
[11] = RT, CEM 0.341, ASMC7 0.708 Mol/L, ratio 2.08
[12] = RT, CEM 0.345, ASMC7 0.358 Mol/L, ratio 1.04
[13] = RT, CEM 0.349, ASMC7 1.088 Mol/L, ratio 3.12
[14] = RT, CEM 0.358, ASMC7 1.488 Mol/L, ratio 4.16

Structure (SMILES): CCCCCCCCCC(=O)Nc1cc(C(F)(F)F)cc(C(F)(F)F)c1 [ASMC9, N-[3,5-bis(trifluoromethyl)phenyl]decanamide]
- NaCl - 20° C. % ext (average) [1]: 24.4%
- Mol % Cl- extracted from the water to be treated ([1]; 60° C.): 6.9% and 8.0%
- Mol % Na+ extracted from the water to be treated ([1]; 60° C.): 5.4% and 5.7%
- NaCl - 60° C. % ext (average) ([1]; 60° C.): 6.5%
- Mol % Cl- extracted from the water to be treated ([1]; RT): 27.1% and 23.8%
- Mol % Na+ extracted from the water to be treated ([1]; RT): 25.2% and 21.7%
- Δ % ext [1]: 17.9%

Structure (SMILES): CCCCCCCC(=O)Nc1cc(C(F)(F)F)cc(C(F)(F)F)c1 [ASMC7, N-[3,5-bis(trifluoromethyl)phenyl]octanamide]
- Mol % of Cl− extracted from water to be treated [2, 7]: 26.6% and 27.4%
- Mol % of Na+ extracted from water to be treated [2, 7]: 28.1% and 28.2%
- Mol % of Cl− extracted from water to be treated [2, 8]: 13.0% and 14.1%
- Mol % of Na+ extracted from water to be treated [2, 8]: 9.9% and 13.1%
- Mol % of Cl− extracted from water to be treated [2, 9]: 31.0% and 30.4%
- Mol % of Na+ extracted from water to be treated [2, 9]: 37.7% and 39.5%
- Mol % of Cl− extracted from water to be treated [2, 10]: 45.6% and 39.9%
- Mol % of Na+ extracted from water to be treated [2, 10]: 48.4% and 46.9%
- Mol % of Cl− extracted from water to be treated [2, 11]: 44.4%
- Mol % of Na+ extracted from water to be treated [2, 11]: 44.2% and 45.1%
- Mol % of Cl− extracted from water to be treated [2, 12]: 27.9% and 27.2%
- Mol % of Na+ extracted from water to be treated [2, 12]: 27.9% and 21.7%
- Mol % of Cl− extracted from water to be treated [2, 13]: 51.2% and 52.9%
- Mol % of Na+ extracted from water to be treated [2, 13]: 60.0% and 59.8%
- Mol % of Cl− extracted from water to be treated [2, 14]: 64.6% and 65.6%
- Mol % of Na+ extracted from water to be treated [2, 14]: 71.2% and 65.0%
- Δ % ext ([2]; [ASMC7]/[CEM] 1.04): 13.6%
- NaCl - 20° C. % ext (average) ([2]; [ASMC7]/[CEM] 1.04): 26.2%
- NaCl - 60° C. % ext (average) ([2]; [ASMC7]/[CEM] 1.04, 60° C.): 12.5%
- Δ % ext ([2]; [ASMC7]/[CEM] 2.08): 16.9%
- NaCl - 20° C. % ext (average) ([2]; [ASMC7]/[CEM] 2.08): 44.5%
- NaCl - 60° C. % ext (average) ([2]; [ASMC7]/[CEM] 2.08, 60° C.): 27.6%
- Δ % ext ([2]; [ASMC7]/[CEM] 3.12): 21.3%
- NaCl - 20° C. % ext (average) ([2]; [ASMC7]/[CEM] 3.12): 55.9%
- NaCl - 60° C. % ext (average) ([2]; [ASMC7]/[CEM] 3.12, 60° C.): 34.5%
- Δ % ext ([2]; [ASMC7]/[CEM] 4.16): 21.4%
- NaCl - 20° C. % ext (average) ([2]; [ASMC7]/[CEM] 4.16): 66.6%
- NaCl - 60° C. % ext (average) ([2]; [ASMC7]/[CEM] 4.16, 60° C.): 45.1%
- NaCl - 20° C. % ext (average) [1]: 24.6%
- Mol % Cl- extracted from the water to be treated ([1]; 60° C.): 7.6% and 7.3%
- Mol % Na+ extracted from the water to be treated ([1]; 60° C.): 5.5% and 5.4%
- NaCl - 60° C. % ext (average) ([1]; 60° C.): 6.3%
- Mol % Cl- extracted from the water to be treated ([1]; RT): 26.3% and 25.9%
- Mol % Na+ extracted from the water to be treated ([1]; RT): 23.6% and 22.8%
- Δ % ext [1]: 18.4%

- solubility [3]: 480 µM (≈ 137 µg/mL)
Structure (SMILES): CCCC(O)c1cc(C(F)(F)F)cc(C(F)(F)F)c1 (stereo not shown)

Structure (SMILES): C1CCC2OCCOCCOCCOCCOC2C1 (stereo not shown) [C15C5, Perhydrobenzo[b]-1,4,7,10,′3-pentaoxacyclopentadecane]
- Extraction rate at 23° C., Cl− [4]: 30.7%
- Extraction rate at 23° C., Na+ [4]: 21.0%
- Extraction rate at 23° C., mean NaCl [4]: 26.0%
- Log K(K+, MeOH, 25° C.) [5]: 3.96
- Log K(Na+, MeOH, 25° C.) [6]: 3.71-3.9

Structure (SMILES): CCCCCCCCCCCCCC(=O)Nc1cc(C(F)(F)F)cc(C(F)(F)F)c1 [ASMC13, N-[3,5-bis(trifluoromethyl)phenyl]tetradecanamide]
- NaCl - 20° C. % ext (average) [1]: 25.0%
- Mol % Cl- extracted from the water to be treated ([1]; 60° C.): 6.9% and 9.4%
- Mol % Na+ extracted from the water to be treated ([1]; 60° C.): 5.9% and 9.0%
- NaCl - 60° C. % ext (average) ([1]; 60° C.): 7.8%
- Mol % Cl- extracted from the water to be treated ([1]; RT): 26.2% and 27.4%
- Mol % Na+ extracted from the water to be treated ([1]; RT): 22.7% and 23.8%
- Δ % ext [1]: 17.2%

— patent US11731933B2, “Device and method for the desalination of water by means of thermal deionisation and liquid-phase ion extraction liquid” (ADIONICS, priority 2015, dated 2023)
